Reference: patent publication US7189754B2, “Pyrrolidine ester derivatives with oxytocin modulating activity” (Applied Research Systems ARS Holding NV, priority 2001, dated 2007)

Tests used:
[1] = molecular target: T1, ratOT-R (Rattus norvegicus, UniProt P70536); experiment: Functional assay No. 2: inhibition of IP3-synthesis in HEK/EBNA-OTR cells; format: cell-based; conditions: oxytocin 10 nM, [3H]-inositol
T1 construct: expressed in transfected cells; host or cells: HEK/EBNA
T1 sequence (P70536 1-388): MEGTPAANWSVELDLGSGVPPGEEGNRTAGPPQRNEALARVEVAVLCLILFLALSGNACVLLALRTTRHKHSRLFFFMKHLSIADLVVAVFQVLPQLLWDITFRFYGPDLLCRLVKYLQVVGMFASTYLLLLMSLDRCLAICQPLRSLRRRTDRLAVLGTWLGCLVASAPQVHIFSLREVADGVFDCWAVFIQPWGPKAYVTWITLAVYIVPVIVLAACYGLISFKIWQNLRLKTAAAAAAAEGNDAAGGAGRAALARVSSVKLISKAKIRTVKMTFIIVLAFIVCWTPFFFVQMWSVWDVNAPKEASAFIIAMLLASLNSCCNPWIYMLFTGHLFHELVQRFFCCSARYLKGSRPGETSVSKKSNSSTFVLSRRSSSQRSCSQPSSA
Excerpt: c) Functional Assay No. 2: Inhibition of IP3 (Inositol Tri-Phosphate)-Synthesis in HEK/EBNA-OTR cells
The interaction of OT on the OT-receptor leads to the IP3 synthesis, IP3 being a second messenger for the Ca^2+ release from sarcoplasmic reticulum, involved in the uterine contraction triggering process (see Mitchell, B. F. and Schmid, B. J. Soc. Gynecol. Invest. 2001, 8,122–33).
This assay can be used to show the inhibition of the OT/OT-R mediated IP3 synthesis by using test compounds of formula (I).
Stimulation of the cells: HEK/EBNA OTR (rat or human) cells are plated out-into costar 12-well plates, and equilibrated for 15–24 h with 4 μCi/ml radiolabelled [^3H]-Inositol with 1% FCS (0.5 ml/well) and without inositol supplement. The medium containing the label is aspirated. […]
The amount of the radiolabelled IP3 may be determined through the ensuing work-up. […]
Elution of total IP's: Elution is achieved using 3 ml 1M ammonium formate/0.1M formic acid. […] The amount of [^3H]-IP3 is determined by a scintillating counter.
The ability of compounds of formula(I) to effectively antagonize oxytocin-induced IP3synthesis mediated by the oxytocin receptor, can be assessed using the above described in vitro biological assay.

[2] = molecular target: T2, human Oxytocin (hOT) receptor (Homo sapiens, UniProt P30559); experiment: In vitro competition binding assay on hOT receptor with scintillation proximity assay ([125I]-OVTA); conditions: HEK293EBNA membranes expressing hOT receptor, 0.2 nM [125I]-OVTA, SPA; read-out: Binding affinity human OT-R IC50
T2 construct: expressed in transfected cells; host or cells: HEK293EBNA
T2 sequence (P30559 1-389): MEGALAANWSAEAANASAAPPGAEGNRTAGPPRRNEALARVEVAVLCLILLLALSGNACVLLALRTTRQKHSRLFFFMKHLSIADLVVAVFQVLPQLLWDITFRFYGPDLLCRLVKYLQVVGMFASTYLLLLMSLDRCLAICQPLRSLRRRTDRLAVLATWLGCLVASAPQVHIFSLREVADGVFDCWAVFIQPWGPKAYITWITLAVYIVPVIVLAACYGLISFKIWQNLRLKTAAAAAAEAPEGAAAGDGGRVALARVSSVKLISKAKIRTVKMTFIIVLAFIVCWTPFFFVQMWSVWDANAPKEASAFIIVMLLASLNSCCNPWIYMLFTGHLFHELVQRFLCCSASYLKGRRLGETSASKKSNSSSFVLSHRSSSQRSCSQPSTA
Protocol: a) In Vitro Competition Binding Assay on hOT Receptor with Scintillation Proximity Assay (see Cook, N. D. et al. Pharmaceutical Manufacturing International 1992; p.49–53)
This assay allows to determine the affinity of the test compounds for the human Oxytocin (hOT) receptor. Membranes from HEK293EBNA (cells expressing the hOT receptor) were suspended in buffer containing 50 mM Tris-HCl, pH 7.4, 5 mM MgCl2 and 0.1% BSA (w/v). The membranes (2–4 μg) were mixed with 0.1 mg SPA bead coated with wheat-germ aglutinin (WGA-PVT-Polyethylene Imine beads from Amersham) and 0.2 nM of the radiolabelled [^125I]-OVTA (OVTA being Ornithin Vasoactive, an analogue of OT for competitive binding experiments). Non-specific binding was determined in the presence of 1 μM Oxytocin. The total assay volume was 100 μl. The plates (Corning® NBS plate) were incubated at room temperature for 30 min and counted on a Mibrobeta® plate scintillation counter. Competitive binding was performed in presence of compounds of formula (I) at the following concentrations: 30 μM, 10 μM, 1 μM, 300 nM, 100 nM, 10 nM, 1 nM, 100 pM, 10 pM. The competitive binding data were analysed using the iterative, nonlinear, curve-fitting program, “Prism” (GraphPad Software, Inc).
The ability of the pyrrolidine derivatives of formula (I) to inhibit the binding of ^125I-OVTA to the OT-receptor was assessed using the above described in vitro biological assay. Representative values for some example compounds are given in Table 1, where the binding affinity of the compounds is expressed by the IC50 (μM) which is the concentration upon which 50% inhibition of OT-R is achieved. From these values, it can be derived that said test compounds according to formula (I) do show a significant binding to the oxytocin receptor.

IC50 [1] | IC50 [2] | SMILES
23 nM | 12 nM | CO/N=C1/C[C@@H](C(=O)OC)N(C(=O)c2ccc(-c3ccccc3C)cc2)C1 [Methyl (2S,4Z)-4-(methoxyimino)-1-[(2′-methyl[1,1′-biphenyl]-4-yl)carbonyl]-2-pyrrolidinecarboxylate]
77 nM | 36 nM | CO/N=C1\C[C@@H](C(=O)OC)N(C(=O)c2ccc(-c3ccccc3C)cc2)C1 [Methyl (2S,4E)-4-(methoxyimino)-1-[(2′-methyl[1,1′-biphenyl]-4-yl)carbonyl]-2-pyrrolidinecarboxylate]
